Experimental data from the Kinase Knowledgebase extract (Sharma et al. 2016).

Target: MAPK14 (human) (UniProt Q16539)
Assay: Inhibition of MAPK14 Kinase Activity

Chain of MAPK14 (human) (Q16539 whole entry, looked up): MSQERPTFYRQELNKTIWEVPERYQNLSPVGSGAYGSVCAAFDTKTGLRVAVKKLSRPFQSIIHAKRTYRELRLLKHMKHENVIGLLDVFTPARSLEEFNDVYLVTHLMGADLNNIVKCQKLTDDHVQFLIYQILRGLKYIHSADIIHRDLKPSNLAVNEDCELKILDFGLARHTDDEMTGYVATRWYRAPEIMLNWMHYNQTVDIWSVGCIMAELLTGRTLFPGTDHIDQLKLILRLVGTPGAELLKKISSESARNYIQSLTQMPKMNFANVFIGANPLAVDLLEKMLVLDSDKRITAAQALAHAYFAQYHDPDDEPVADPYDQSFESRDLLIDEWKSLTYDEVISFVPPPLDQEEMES

Compound	IC50 [nM]
COc1cccc(C(=O)c2c(N)sc3c2ccc(=O)n3-c2ccccc2)c1	< 2000
Cc1cccc(C(=O)c2c(NC3CCN(C(C)C)CC3)sc3c2ccc(=O)n3-c2ccccc2)c1	< 2000
O=C(c1ccccc1)c1c(NC(=O)[C@@H]2CCCN2)sc2c1ccc(=O)n2-c1ccccc1	< 2000
Cc1cc(C(=O)c2c(NC(=O)NC(C)(C)CO)sc3c2ccc(=O)n3-c2ccccc2Cl)ccc1F	< 2000
CCN1CCC(Nc2sc3c(ccc(=O)n3-c3ccccc3)c2C(=O)c2ccccc2)CC1	< 2000
N#Cc1cccc(C(=O)c2c(N)sc3c2ccc(=O)n3-c2ccccc2)c1	< 2000
O=C(c1ccccc1)c1c(NCC2CNC2)sc2c1ccc(=O)n2-c1ccccc1	< 2000
CC(C)N1CCC(Nc2sc3c(ccc(=O)n3-c3ccccc3)c2C(=O)c2ccccc2)CC1	< 2000
NC1CN(c2sc3c(ccc(=O)n3-c3ccccc3)c2C(=O)c2ccccc2)C1	< 2000
Nc1sc2c(ccc(=O)n2-c2cccnc2)c1C(=O)c1ccccc1	< 2000
CC(=O)Nc1sc2c(ccc(=O)n2CC2CC2)c1C(=O)c1ccccc1	< 2000
CN(C)C(=O)c1sc2c(ccc(=O)n2-c2ccccc2)c1C(=O)c1ccccc1	< 2000
Cc1cccc(C(=O)c2c(NC(=O)NCC(C)(C)O)sc3c2ccc(=O)n3-c2ccccc2)c1	< 2000
Cc1cc(C(=O)c2c(NC(=O)N[C@@H]3CCNC3)sc3c2ccc(=O)n3-c2ccccc2)ccc1F	< 2000
Cc1cccc(C(=O)c2c(C(=O)N3CCC3)sc3c2ccc(=O)n3-c2ccccc2)c1	< 2000
Cc1cccc(C(=O)c2c(NS(C)(=O)=O)sc3c2ccc(=O)n3-c2ccccc2)c1	< 2000
Cc1ccc(-n2c(=O)ccc3c(C(=O)c4ccccc4)c(NC4CNC4)sc32)cc1	< 2000
CN1CC[C@H](Nc2sc3c(ccc(=O)n3-c3ccccc3)c2C(=O)c2ccccc2)C1	< 2000
CC(=O)Nc1sc2c(ccc(=O)n2-c2ccccc2)c1C(=O)c1cccc(Cl)c1	< 2000
Cc1cc(C(=O)c2c(NC(=O)C3CCNCC3)sc3c2ccc(=O)n3-c2ccccc2F)ccc1F	< 2000

Compound	IC50 [nM]
Cc1cc(C(=O)c2c(NC3CNC3)sc3c2ccc(=O)n3CC2CC2)ccc1F	< 2000
Cc1cc(C(=O)c2c(NC3CCN(C)CC3)sc3c2ccc(=O)n3-c2ccc(F)cc2)ccc1F	< 2000
Cc1cc(C(=O)c2c(C(N)=O)sc3c2ccc(=O)n3-c2ccccc2)ccc1F	< 2000
CC(=O)Nc1sc2c(ccc(=O)n2-c2ccccc2Cl)c1C(=O)c1ccccc1	< 2000
CC(=O)Nc1sc2c(ccc(=O)n2-c2ccccc2)c1C(=O)c1cccc(Br)c1	< 2000
O=C(c1ccccc1)c1c(NC2CCNCC2)sc2c1ccc(=O)n2-c1ccccc1	< 2000
CC(=O)Nc1sc2c(ccc(=O)n2-c2ccccc2)c1C(=O)c1cccc(C)c1	< 2000
CN1CCC[C@@H](Nc2sc3c(ccc(=O)n3-c3ccccc3)c2C(=O)c2ccccc2)C1	< 2000
CCOc1ccc(C(=O)c2c(N)sc3c2ccc(=O)n3-c2ccccc2)cc1C	< 2000
Cc1cc(C(=O)c2c(N)sc3c2ccc(=O)n3CC2CC2)ccc1F	< 2000
Cc1cc(C(=O)c2c(NC3CCN(C)CC3)sc3c2ccc(=O)n3-c2ccccc2)ccc1F	< 2000
CN1CCC[C@@H]1C(=O)Nc1sc2c(ccc(=O)n2-c2ccccc2)c1C(=O)c1ccccc1	< 2000
CNC(=O)c1sc2c(ccc(=O)n2-c2ccccc2)c1C(=O)c1ccccc1	< 2000
CCN1CC(Nc2sc3c(ccc(=O)n3-c3ccccc3)c2C(=O)c2ccccc2)C1	< 2000
Nc1sc2c(ccc(=O)n2-c2ccccc2F)c1C(=O)c1ccccc1	< 2000
CN1CC[C@H](NC(=O)Nc2sc3c(ccc(=O)n3-c3ccccc3)c2C(=O)c2ccccc2)C1	< 2000
Cc1cc(C(=O)c2c(NC(=O)C3CCNCC3)sc3c2ccc(=O)n3-c2ccccc2)ccc1F	< 2000
CC(C)(CO)NC(=O)Nc1sc2c(ccc(=O)n2-c2ccccc2)c1C(=O)c1ccccc1	< 2000
CCOC(=O)c1sc2c(ccc(=O)n2CC2CC2)c1C(=O)c1ccccc1	< 2000
N#Cc1ccccc1C(=O)c1c(N)sc2c1ccc(=O)n2-c1ccccc1	< 2000

Now from value to molecule:

IC50 [nM]	Compound
< 2000	CN(C)[C@@H]1CCN(C(=O)Nc2sc3c(ccc(=O)n3-c3ccccc3)c2C(=O)c2ccccc2)C1
< 2000	CC(C)(CO)NC(=O)Nc1sc2c(ccc(=O)n2-c2ccccc2Cl)c1C(=O)c1ccccc1
< 2000	Cc1cc(C(=O)c2c(N)sc3c2ccc(=O)n3-c2ccccc2F)ccc1F
< 2000	Cc1cc(C(=O)c2c(N[C@@H]3CCN(C)C3)sc3c2ccc(=O)n3-c2ccccc2)ccc1F
< 2000	O=C(c1ccccc1)c1c(NC2CNC2)sc2c1ccc(=O)n2-c1ccccc1
< 2000	CN1CC(CNc2sc3c(ccc(=O)n3-c3ccccc3)c2C(=O)c2ccccc2)C1
< 2000	CCOC(=O)c1sc2c(ccc(=O)n2-c2ccccc2)c1C(=O)c1ccccc1
< 2000	O=C(c1ccccc1)c1c(C(=O)N2CCOCC2)sc2c1ccc(=O)n2-c1ccccc1
< 2000	Cc1cccc(C(=O)c2c(NC(=O)N3CCN(C)CC3)sc3c2ccc(=O)n3-c2ccccc2)c1
< 2000	CC(C)N[C@H]1CCN(C(=O)Nc2sc3c(ccc(=O)n3-c3ccccc3)c2C(=O)c2ccccc2)C1
< 2000	Nc1sc2c(ccc(=O)n2-c2ccccc2)c1C(=O)c1ccc(OC(F)F)cc1
< 2000	CN1CCC(Nc2sc3c(ccc(=O)n3-c3ccccc3)c2C(=O)c2ccc(F)c(Cl)c2)CC1
< 2000	N#Cc1sc2c(ccc(=O)n2-c2ccccc2)c1C(=O)c1ccccc1
< 2000	Cc1cc(C(=O)c2c(N)sc3c2ccc(=O)n3-c2ccc(F)cc2)ccc1F
< 2000	O=C(c1ccccc1)c1c(C(=O)N2CCCC2)sc2c1ccc(=O)n2-c1ccccc1
< 2000	Cc1cc(C(=O)c2c(N[C@@H]3CCNC3)sc3c2ccc(=O)n3-c2ccccc2)ccc1F
< 2000	CC(=O)Nc1sc2c(ccc(=O)n2-c2ccccc2F)c1C(=O)c1ccccc1
< 2000	Nc1sc2c(ccc(=O)n2-c2ccccc2)c1C(=O)c1cccc(OC(F)F)c1
< 2000	Nc1sc2c(ccc(=O)n2-c2ccccc2)c1C(=O)c1ccc(Cl)cc1
< 2000	Cc1ccc(-n2c(=O)ccc3c(C(=O)c4ccccc4)c(NC4CN(C)C4)sc32)cc1
< 2000	Cc1cccc(C(=O)c2c(NC3CN(C)C3)sc3c2ccc(=O)n3-c2ccccc2)c1
< 2000	Cc1cc(C(=O)c2c(N[C@H]3CCN(C)C3)sc3c2ccc(=O)n3-c2ccccc2)ccc1F
< 2000	CN(C)[C@H]1CCN(C(=O)Nc2sc3c(ccc(=O)n3-c3ccccc3)c2C(=O)c2ccccc2)C1
< 2000	CC(=O)Nc1sc2c(ccc(=O)n2-c2ccccc2)c1C(=O)c1ccc(F)c(C)c1
< 2000	Cc1cc(C(=O)c2c(NC3CNC3)sc3c2ccc(=O)n3-c2c(F)cccc2F)ccc1F
< 2000	Cc1cccc(C(=O)c2c(NC3CCN(C)CC3)sc3c2ccc(=O)n3-c2ccccc2)c1
< 2000	C[C@@H](Nc1sc2c(ccc(=O)n2-c2ccccc2)c1C(=O)c1ccccc1)C(N)=O
< 2000	Cc1cc(C(=O)c2c(NC(=O)C3CCN(C)CC3)sc3c2ccc(=O)n3-c2c(F)cccc2F)ccc1F
< 2000	Cc1cccc(C(=O)c2c(N3CCC3)sc3c2ccc(=O)n3-c2ccccc2)c1
< 2000	Nc1sc2c(ccc(=O)n2-c2ccccc2)c1C(=O)c1ccc(F)c(Cl)c1
